Measurements taken from ChEMBL document CHEMBL4507263, “Data for DCP probe BAY-474” (2021).

Experiments:
[1] = target: Calcium/calmodulin-dependent protein kinase type II subunit delta (Homo sapiens) (UniProt Q13557); experiment: CaMKIIdelta (h) Millipore kinase activity assay; conditions: Compound concentration 1.0 uM
[2] = target: Cyclin-dependent kinase 2/cyclin E (Homo sapiens) (UniProt P24864+P24941+O96020); experiment: CDK2/cyclinE (h) Millipore kinase activity assay; assay type: protein-complex assay; conditions: Compound concentration 1.0 uM
[3] = target: CDK9/cyclin T1 (Homo sapiens) (UniProt O60563+P50750); experiment: CDK9/cyclin T1 (h) Millipore kinase activity assay; assay type: protein-complex assay; conditions: Compound concentration 1.0 uM
[4] = target: Ephrin type-B receptor 4 (Homo sapiens) (UniProt P54760); experiment: EphB4 (h) Millipore kinase activity assay; conditions: Compound concentration 1.0 uM
[5] = target: Serine/threonine-protein kinase MRCK beta (Homo sapiens) (UniProt Q9Y5S2); experiment: MRCKbeta (h) Millipore kinase activity assay; conditions: Compound concentration 1.0 uM
[6] = target: Serine/threonine-protein kinase PAK 5 (Homo sapiens) (UniProt Q9P286); experiment: PAK5 (h) Millipore kinase activity assay; conditions: Compound concentration 1.0 uM
[7] = target: Serine/threonine-protein kinase MARK2 (Homo sapiens) (UniProt Q7KZI7); experiment: PAR-1Balpha (h) Millipore kinase activity assay; conditions: Compound concentration 1.0 uM
[8] = target: Serine/threonine-protein kinase pim-1 (Homo sapiens) (UniProt P11309); experiment: Pim-1 (h) Millipore kinase activity assay; conditions: Compound concentration 1.0 uM
[9] = target: Rho-associated protein kinase 1 (Homo sapiens) (UniProt Q13464); experiment: ROCK-I (h) Millipore kinase activity assay; conditions: Compound concentration 1.0 uM
[10] = target: B1 bradykinin receptor (Homo sapiens) (UniProt P46663); experiment: Inhibition of Bradykinin B1 at 10 µM in the Eurofins-Panlabs radioligand binding assay (Eurofins_assay_212510); conditions: Compound concentration 10.0 uM
[11] = target: Voltage-dependent N-type calcium channel subunit alpha-1B (Homo sapiens) (UniProt Q00975); experiment: Inhibition of Calcium Channel N-Type at 10 µM in the Eurofins-Panlabs radioligand binding assay (Eurofins_assay_216000); conditions: Rattus norvegicus; Compound concentration 10.0 uM
[12] = target: Alpha-1A adrenergic receptor (Homo sapiens) (UniProt P35348); conditions: Compound concentration 10.0 uM
[13] = target: Estrogen receptor (Homo sapiens) (UniProt P03372); conditions: Compound concentration 10.0 uM
[14] = target: Kappa-type opioid receptor (Homo sapiens) (UniProt P41145); conditions: Compound concentration 10.0 uM
[15] = tested on: Tyrosine-protein kinase ABL1 (Homo sapiens), P00519 [F317I]; conditions: Compound concentration 1000.0 nM
[16] = target: Tyrosine-protein kinase BTK (Homo sapiens) (UniProt Q06187); conditions: Compound concentration 1000.0 nM
[17] = target: Calcium/calmodulin-dependent protein kinase kinase 1 (Homo sapiens) (UniProt Q8N5S9); conditions: Compound concentration 1000.0 nM
[18] = target: Cyclin-dependent kinase 3 (Homo sapiens) (UniProt Q00526); conditions: Compound concentration 1000.0 nM
[19] = target: Cyclin-dependent kinase 5 (Homo sapiens) (UniProt Q00535); conditions: Compound concentration 1000.0 nM
[20] = target: Megakaryocyte-associated tyrosine-protein kinase (Homo sapiens) (UniProt P42679); conditions: Compound concentration 1000.0 nM
[21] = target: Serine/threonine-protein kinase 17A (Homo sapiens) (UniProt Q9UEE5); conditions: Compound concentration 1000.0 nM
[22] = target: Dual specificity tyrosine-phosphorylation-regulated kinase 2 (Homo sapiens) (UniProt Q92630); conditions: Compound concentration 1000.0 nM
[23] = target: Epidermal growth factor receptor (Homo sapiens) (UniProt P00533); conditions: Compound concentration 1000.0 nM
[24] = target: Eukaryotic translation initiation factor 2-alpha kinase 1 (Homo sapiens) (UniProt Q9BQI3); conditions: Compound concentration 1000.0 nM
[25] = target: Ephrin type-A receptor 5 (Homo sapiens) (UniProt P54756); conditions: Compound concentration 1000.0 nM
[26] = target: Ephrin type-B receptor 2 (Homo sapiens) (UniProt P29323); conditions: Compound concentration 1000.0 nM
[27] = target: Focal adhesion kinase 1 (Homo sapiens) (UniProt Q05397); conditions: Compound concentration 1000.0 nM
[28] = tested on: Receptor-type tyrosine-protein kinase FLT3 (Homo sapiens), P36888 [D835H]; conditions: Compound concentration 1000.0 nM
[29] = tested on: Receptor-type tyrosine-protein kinase FLT3 (Homo sapiens), P36888 [UNDEFINED MUTATION]; conditions: Compound concentration 1000.0 nM
[30] = target: Rhodopsin kinase GRK7 (Homo sapiens) (UniProt Q8WTQ7); conditions: Compound concentration 1000.0 nM
[31] = target: Leucine-rich repeat serine/threonine-protein kinase 2 (Homo sapiens) (UniProt Q5S007); conditions: Compound concentration 1000.0 nM
[32] = target: MAP/microtubule affinity-regulating kinase 3 (Homo sapiens) (UniProt P27448); conditions: Compound concentration 1000.0 nM
[33] = tested on: Hepatocyte growth factor receptor (Homo sapiens), P08581 [Y1235D]; conditions: Compound concentration 1000.0 nM
[34] = target: Macrophage-stimulating protein receptor (Homo sapiens) (UniProt Q04912); conditions: Compound concentration 1000.0 nM
[35] = target: Serine/threonine-protein kinase 26 (Homo sapiens) (UniProt Q9P289); conditions: Compound concentration 1000.0 nM
[36] = target: Myosin light chain kinase, smooth muscle (Homo sapiens) (UniProt Q15746); conditions: Compound concentration 1000.0 nM
[37] = target: Mitogen-activated protein kinase 14 (Homo sapiens) (UniProt Q16539); conditions: Compound concentration 1000.0 nM
[38] = target: Serine/threonine-protein kinase D3 (Homo sapiens) (UniProt O94806); conditions: Compound concentration 1000.0 nM
[39] = target: cAMP-dependent protein kinase catalytic subunit PRKX (Homo sapiens) (UniProt P51817); conditions: Compound concentration 1000.0 nM
[40] = target: Serine/threonine-protein kinase SIK3 (Homo sapiens) (UniProt Q9Y2K2); conditions: Compound concentration 1000.0 nM
[41] = target: STE20/SPS1-related proline-alanine-rich protein kinase (Homo sapiens) (UniProt Q9UEW8); conditions: Compound concentration 1000.0 nM
[42] = target: Dual specificity testis-specific protein kinase 1 (Homo sapiens) (UniProt Q15569); conditions: Compound concentration 1000.0 nM
[43] = target: Vascular endothelial growth factor receptor 2 (Homo sapiens) (UniProt P35968); conditions: Compound concentration 1000.0 nM
[44] = target: Tyrosine-protein kinase Yes (Homo sapiens) (UniProt P07947); conditions: Compound concentration 1000.0 nM

Sequence of Kappa-type opioid receptor (Homo sapiens) (P41145 whole entry): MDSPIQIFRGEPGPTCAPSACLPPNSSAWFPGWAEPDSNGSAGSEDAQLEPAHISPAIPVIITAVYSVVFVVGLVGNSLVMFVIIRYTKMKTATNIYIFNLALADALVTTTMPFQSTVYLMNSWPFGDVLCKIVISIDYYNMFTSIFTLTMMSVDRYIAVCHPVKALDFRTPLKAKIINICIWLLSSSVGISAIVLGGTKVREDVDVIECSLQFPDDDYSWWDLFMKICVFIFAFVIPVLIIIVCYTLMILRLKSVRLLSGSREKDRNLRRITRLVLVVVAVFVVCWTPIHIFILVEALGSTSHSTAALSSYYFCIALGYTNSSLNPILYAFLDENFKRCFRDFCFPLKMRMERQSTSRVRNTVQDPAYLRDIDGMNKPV
Sequence of Tyrosine-protein kinase ABL1 (Homo sapiens), P00519 [F317I] (P00519 whole entry F317I): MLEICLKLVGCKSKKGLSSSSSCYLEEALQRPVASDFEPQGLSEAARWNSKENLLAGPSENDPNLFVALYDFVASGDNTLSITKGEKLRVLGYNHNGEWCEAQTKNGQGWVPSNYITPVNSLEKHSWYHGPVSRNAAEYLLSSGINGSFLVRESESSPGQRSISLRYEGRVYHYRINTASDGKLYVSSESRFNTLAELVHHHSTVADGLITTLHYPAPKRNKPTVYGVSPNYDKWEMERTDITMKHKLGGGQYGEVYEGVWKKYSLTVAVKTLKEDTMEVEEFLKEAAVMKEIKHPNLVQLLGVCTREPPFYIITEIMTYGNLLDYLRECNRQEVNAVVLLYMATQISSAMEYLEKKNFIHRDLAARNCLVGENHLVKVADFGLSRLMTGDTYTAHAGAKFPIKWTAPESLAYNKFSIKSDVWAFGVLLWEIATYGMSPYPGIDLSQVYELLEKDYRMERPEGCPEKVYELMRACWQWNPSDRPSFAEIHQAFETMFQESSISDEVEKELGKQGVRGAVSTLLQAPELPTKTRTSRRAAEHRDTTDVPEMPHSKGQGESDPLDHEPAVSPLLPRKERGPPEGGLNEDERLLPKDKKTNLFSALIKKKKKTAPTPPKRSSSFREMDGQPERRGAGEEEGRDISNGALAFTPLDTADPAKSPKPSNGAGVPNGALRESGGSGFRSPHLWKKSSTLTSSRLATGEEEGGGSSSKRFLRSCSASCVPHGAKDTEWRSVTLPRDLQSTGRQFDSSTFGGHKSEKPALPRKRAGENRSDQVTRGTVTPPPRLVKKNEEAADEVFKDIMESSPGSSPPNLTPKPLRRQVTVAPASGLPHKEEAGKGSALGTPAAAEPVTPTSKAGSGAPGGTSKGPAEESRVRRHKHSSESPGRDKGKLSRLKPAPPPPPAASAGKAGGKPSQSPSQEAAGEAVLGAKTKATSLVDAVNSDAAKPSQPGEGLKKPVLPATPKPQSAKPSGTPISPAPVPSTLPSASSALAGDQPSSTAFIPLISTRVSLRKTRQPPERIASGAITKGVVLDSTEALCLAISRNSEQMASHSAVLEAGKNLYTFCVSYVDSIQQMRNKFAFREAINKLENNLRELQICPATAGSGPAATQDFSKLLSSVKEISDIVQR
Sequence of Focal adhesion kinase 1 (Homo sapiens) (Q05397 2-1052 limits assumed): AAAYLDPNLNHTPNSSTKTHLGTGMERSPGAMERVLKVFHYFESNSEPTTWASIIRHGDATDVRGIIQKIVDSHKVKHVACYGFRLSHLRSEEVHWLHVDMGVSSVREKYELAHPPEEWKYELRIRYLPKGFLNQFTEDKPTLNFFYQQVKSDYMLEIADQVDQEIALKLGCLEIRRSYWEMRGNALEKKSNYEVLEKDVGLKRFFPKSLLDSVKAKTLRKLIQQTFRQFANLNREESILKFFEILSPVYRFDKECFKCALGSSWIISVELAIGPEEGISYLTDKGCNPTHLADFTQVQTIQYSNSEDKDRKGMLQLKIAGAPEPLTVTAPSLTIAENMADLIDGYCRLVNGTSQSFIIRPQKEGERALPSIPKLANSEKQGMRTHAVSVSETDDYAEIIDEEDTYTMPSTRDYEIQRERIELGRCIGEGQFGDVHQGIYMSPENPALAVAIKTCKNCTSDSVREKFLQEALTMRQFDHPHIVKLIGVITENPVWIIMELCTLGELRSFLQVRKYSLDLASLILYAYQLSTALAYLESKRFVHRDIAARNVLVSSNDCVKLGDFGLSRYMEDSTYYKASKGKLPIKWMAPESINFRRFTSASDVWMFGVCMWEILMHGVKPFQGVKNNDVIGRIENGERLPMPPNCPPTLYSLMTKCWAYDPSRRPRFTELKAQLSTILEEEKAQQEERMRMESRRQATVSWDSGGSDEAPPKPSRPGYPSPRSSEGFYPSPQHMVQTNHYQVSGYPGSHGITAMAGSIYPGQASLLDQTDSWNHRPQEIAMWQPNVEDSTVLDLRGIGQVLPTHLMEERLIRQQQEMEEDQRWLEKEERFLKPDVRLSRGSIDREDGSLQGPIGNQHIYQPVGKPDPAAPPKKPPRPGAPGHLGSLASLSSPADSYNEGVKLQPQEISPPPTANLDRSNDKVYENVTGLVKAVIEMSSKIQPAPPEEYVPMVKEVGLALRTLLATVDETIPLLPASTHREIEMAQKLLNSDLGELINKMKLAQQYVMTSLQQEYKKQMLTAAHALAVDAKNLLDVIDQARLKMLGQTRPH
Sequence of Dual specificity testis-specific protein kinase 1 (Homo sapiens) (Q15569 whole entry, looked up): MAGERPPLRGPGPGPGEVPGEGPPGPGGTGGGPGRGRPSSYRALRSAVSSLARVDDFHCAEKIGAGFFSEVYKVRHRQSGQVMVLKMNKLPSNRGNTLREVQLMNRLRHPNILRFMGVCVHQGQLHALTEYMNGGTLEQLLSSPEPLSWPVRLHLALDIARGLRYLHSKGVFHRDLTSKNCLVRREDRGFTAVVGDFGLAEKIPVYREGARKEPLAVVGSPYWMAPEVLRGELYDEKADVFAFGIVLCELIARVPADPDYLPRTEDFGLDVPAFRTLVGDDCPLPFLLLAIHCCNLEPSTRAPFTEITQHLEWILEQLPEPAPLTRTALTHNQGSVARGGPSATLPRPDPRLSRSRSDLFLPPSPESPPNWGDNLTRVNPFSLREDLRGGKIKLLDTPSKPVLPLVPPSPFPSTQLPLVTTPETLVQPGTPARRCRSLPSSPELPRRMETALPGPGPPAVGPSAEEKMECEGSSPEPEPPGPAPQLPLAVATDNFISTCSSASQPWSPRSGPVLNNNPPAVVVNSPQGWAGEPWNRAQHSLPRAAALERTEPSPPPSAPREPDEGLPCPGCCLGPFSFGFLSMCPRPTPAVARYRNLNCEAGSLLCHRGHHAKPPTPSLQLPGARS
Sequence of cAMP-dependent protein kinase catalytic subunit PRKX (Homo sapiens) (P51817 whole entry): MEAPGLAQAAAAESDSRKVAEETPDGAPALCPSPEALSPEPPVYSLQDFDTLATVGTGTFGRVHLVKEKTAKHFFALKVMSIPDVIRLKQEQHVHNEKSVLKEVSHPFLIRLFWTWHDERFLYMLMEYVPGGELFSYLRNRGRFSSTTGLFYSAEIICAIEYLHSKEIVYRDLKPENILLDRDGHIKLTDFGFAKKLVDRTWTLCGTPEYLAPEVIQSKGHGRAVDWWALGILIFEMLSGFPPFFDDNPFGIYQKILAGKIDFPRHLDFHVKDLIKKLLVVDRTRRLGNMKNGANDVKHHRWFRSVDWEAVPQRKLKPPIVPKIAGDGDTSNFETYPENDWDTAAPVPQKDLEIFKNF
Sequence of MAP/microtubule affinity-regulating kinase 3 (Homo sapiens) (P27448 whole entry, looked up): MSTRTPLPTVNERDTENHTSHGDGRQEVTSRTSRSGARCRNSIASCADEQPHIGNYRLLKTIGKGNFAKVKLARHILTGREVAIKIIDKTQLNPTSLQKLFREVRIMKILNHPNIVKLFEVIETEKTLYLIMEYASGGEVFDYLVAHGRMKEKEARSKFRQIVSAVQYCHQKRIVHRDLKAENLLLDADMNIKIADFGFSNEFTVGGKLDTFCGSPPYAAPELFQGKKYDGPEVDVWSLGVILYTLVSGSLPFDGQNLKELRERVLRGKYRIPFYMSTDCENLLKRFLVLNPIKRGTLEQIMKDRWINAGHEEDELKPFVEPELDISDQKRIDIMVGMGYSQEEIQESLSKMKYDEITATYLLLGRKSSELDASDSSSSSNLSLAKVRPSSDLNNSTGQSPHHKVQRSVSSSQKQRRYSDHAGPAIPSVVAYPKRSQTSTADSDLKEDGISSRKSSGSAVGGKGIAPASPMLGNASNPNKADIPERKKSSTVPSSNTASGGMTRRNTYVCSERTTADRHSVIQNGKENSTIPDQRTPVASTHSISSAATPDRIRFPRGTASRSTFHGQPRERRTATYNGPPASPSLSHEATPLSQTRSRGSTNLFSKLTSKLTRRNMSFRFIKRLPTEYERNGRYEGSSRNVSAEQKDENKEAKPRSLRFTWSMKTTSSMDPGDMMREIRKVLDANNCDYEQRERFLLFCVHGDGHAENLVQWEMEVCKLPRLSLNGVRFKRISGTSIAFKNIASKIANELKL
Sequence of Serine/threonine-protein kinase PAK 5 (Homo sapiens) (Q9P286 whole entry, looked up): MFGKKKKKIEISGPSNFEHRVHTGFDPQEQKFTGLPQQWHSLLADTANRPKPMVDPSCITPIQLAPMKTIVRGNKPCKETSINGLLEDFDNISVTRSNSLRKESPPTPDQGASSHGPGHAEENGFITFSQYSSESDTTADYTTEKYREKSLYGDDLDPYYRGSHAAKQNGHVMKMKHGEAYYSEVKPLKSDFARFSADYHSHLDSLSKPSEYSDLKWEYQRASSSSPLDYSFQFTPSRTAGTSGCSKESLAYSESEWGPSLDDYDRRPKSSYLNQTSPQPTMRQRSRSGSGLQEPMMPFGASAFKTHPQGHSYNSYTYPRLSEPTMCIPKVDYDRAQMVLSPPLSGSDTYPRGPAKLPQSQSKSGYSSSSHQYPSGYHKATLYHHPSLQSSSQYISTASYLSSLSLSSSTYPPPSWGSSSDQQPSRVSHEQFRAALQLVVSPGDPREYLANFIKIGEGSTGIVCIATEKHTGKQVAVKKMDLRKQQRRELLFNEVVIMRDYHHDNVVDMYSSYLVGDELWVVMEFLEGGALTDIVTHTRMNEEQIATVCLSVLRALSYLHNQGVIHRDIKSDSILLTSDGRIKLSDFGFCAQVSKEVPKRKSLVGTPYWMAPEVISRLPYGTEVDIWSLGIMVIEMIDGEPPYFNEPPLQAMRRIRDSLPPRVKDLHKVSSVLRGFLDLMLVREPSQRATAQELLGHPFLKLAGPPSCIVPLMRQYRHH

CC1=C(C#N)C(c2ccc3[nH]nc(C)c3c2)C(C#N)=C(C)N1 [BAY-474]
inactive: inhibition [1] 3% | inhibition [2] 9% | inhibition [3] -10% | inhibition [4] -4% | inhibition [5] -7% | inhibition [6] -4% | inhibition [7] 26% | inhibition [8] -3% | inhibition [9] 1% | inhibition [10] 6% | inhibition [11] 6% | inhibition [12] 15.6% | inhibition [13] 2% | inhibition [14] 7%

CC1=C(C#N)[C@@H](c2ccc3[nH]nc(C)c3c2)C(C#N)=C(c2ccc(Cl)cc2)N1 [BAY-827]
inactive: residual activity [15] 100% | residual activity [16] 99.9% | residual activity [17] 93.7% | residual activity [18] 100% | residual activity [19] 100% | residual activity [20] 100% | residual activity [21] 100% | residual activity [22] 100% | residual activity [23] 100% | residual activity [24] 100% | residual activity [25] 100% | residual activity [26] 100% | residual activity [27] 100% | residual activity [28] 100% | residual activity [29] 100% | residual activity [30] 100% | residual activity [31] 91.7% | residual activity [32] 100% | residual activity [33] 52.6% | residual activity [34] 70.2% | residual activity [35] 100% | residual activity [36] 100% | residual activity [37] 100% | residual activity [38] 100% | residual activity [39] 100% | residual activity [40] 100% | residual activity [41] 90.7% | residual activity [42] 100% | residual activity [43] 96.3% | residual activity [44] 100%
